In US11596639B2, “Substituted indole Mcl-1 inhibitors” (Vanderbilt University, priority 2016, dated 2023):

Tests used:
Mcl-1 = Mcl-1 (Homo sapiens (Human), UniProt Q07820); assay: TR-FRET binding assay, FITC-Bak peptide and MBP-tagged Mcl-1; conditions: read-out: Ki for Inhibition of Mcl-1 by TR-FRET assay
Protocol: Compounds are diluted in DMSO in a 16-point, semilog serial dilution scheme. […] The plate was mixed and incubated for 3 hours at room temperature. […] TR-FRET signal is plotted and IC50 and Ki values are calculated in the same manner as the fluorescence polarization anisotropy based competition assays.

[1] = test system: H929 human cancer cell lines; assay: Cellular viability / proliferation (Cell TiterGlo, 72 h); assay type: cell-based; conditions: Homo sapiens, NCI-H929, 72 h, read-out: GI50 on cellular proliferation of H929 human cancer cell lines, H929 cells, 72 h, Cell TiterGlo, 10% FBS
In short: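 1,000 cells/well, 10% FBS medium; compound added at 24 h, 2-fold dilutions from 50 μM top, DMSO <1% final. 72 h exposure, CellTiterGlo 30 min RT dark, luminescence read. IC50 by 4-parameter fit.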

Chain of Mcl-1 (Q07820 172-327): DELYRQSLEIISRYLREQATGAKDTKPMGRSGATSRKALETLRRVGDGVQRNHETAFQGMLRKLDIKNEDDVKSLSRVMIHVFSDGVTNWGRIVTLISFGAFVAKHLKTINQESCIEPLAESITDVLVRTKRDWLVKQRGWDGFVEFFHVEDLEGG

| SMILES | Ki (Mcl-1) | GI50 [1] |
| --- | --- | --- |
| COCCOCc1cc(N2C[C@@H](C)n3c(c(CCCOc4cc(C)c(Cl)c(C)c4)c4ccc(Cl)c(-c5c(C)nn(C)c5C)c43)C2=O)c2c(c1)cc(C(=O)O)n2C [Example 595, (R)-7-(7-chloro-10-(3-(4-chloro-3,5-dimethylphenoxy)propyl)-4-methyl-1-oxo-6-(1,3,5-trimethyl-1H-pyrazol-4-yl)-3,4-dihydropyrazino[1,2-a]indol-2(1H)-yl)-5-((2-methoxyethoxy)methyl)-1-methyl-1H-indole-2-carboxylic acid] | < 0.2 nM | < 200 nM |
| Cc1cc(OCCCc2c3n(c4c(-c5c(C)nn(C)c5C)c(Cl)ccc24)[C@H](C)CN(c2cn(CC(=O)N4CCOCC4)c4ccc(-c5ncccn5)cc24)C3=O)cc(C)c1Cl [Example 531, (R)-7-Chloro-10-(3-(4-chloro-3,5-dimethylphenoxy)propyl)-4-methyl-2-(1-(2-morpholino-2-oxoethyl)-5-(pyrimidin-2-yl)-1H-indol-3-yl)-6-(1,3,5-trimethyl-1H-pyrazol-4-yl)-3,4-dihydropyrazino[1,2-a]indol-1(2H)-one] | 0.48 nM | 380 nM |
| COCCn1cc(N2C[C@@H](C)n3c(c(CCCOc4cc(C)c(Cl)c(C)c4)c4ccc(Cl)c(-c5c(C)nn(C)c5C)c43)C2=O)c2cc(-c3ncn(CC4CC4)n3)ccc21 [Example 589, (R)-7-Chloro-10-(3-(4-chloro-3,5-dimethylphenoxy)propyl)-2-(5-(1-(cyclopropylmethyl)-1H-1,2,4-triazol-3-yl)-1-(2-methoxyethyl)-1H-indol-3-yl)-4-methyl-6-(1,3,5-trimethyl-1H-pyrazol-4-yl)-3,4-dihydropyrazino[1,2-a]indol-1(2H)-one] | 1.7 nM | 1100 nM |
| COCCn1cc(N2C[C@@H](C)n3c(c(CCCOc4cc(C)c(Cl)c(C)c4)c4ccc(Cl)c(-c5c(C)nn(C)c5C)c43)C2=O)c2cc(-c3ncccn3)ccc21 [Example 548, (R)-7-Chloro-10-(3-(4-chloro-3,5-dimethylphenoxy)propyl)-2-(1-(2-methoxyethyl)-5-(pyrimidin-2-yl)-1H-indol-3-yl)-4-methyl-6-(1,3,5-trimethyl-1H-pyrazol-4-yl)-3,4-dihydropyrazino[1,2-a]indol-1(2H)-one] | 0.94 nM | 610 nM |
| Cc1cc(OCCCc2c3n(c4c(-c5c(C)nn(C)c5C)c(Cl)ccc24)[C@H](C)CN(c2cc(CCN4CCCCC4)cc4cc(C(=O)O)n(C)c24)C3=O)cc(C)c1Cl [Example 723, (R)-7-(7-chloro-10-(3-(4-chloro-3,5-dimethylphenoxy)propyl)-4-methyl-1-oxo-6-(1,3,5-trimethyl-1H-pyrazol-4-yl)-3,4-dihydropyrazino[1,2-a]indol-2(1H)-yl)-1-methyl-5-(2-(piperidin-1-yl)ethyl)-1H-indole-2-carboxylic acid] | < 0.2 nM | < 200 nM |
| Cc1cc(OCCCc2c3n(c4c(-c5c(C)nn(C)c5C)c(Cl)ccc24)[C@H](C)CN(c2cn(C)c4ccc(-c5nnc6ccccn56)cc24)C3=O)cc(C)c1Cl [Example 675, (R)-2-(5-([1,2,4]Triazolo[4,3-a]pyridin-3-yl)-1-methyl-1H-indol-3-yl)-7-chloro-10-(3-(4-chloro-3,5-dimethylphenoxy)propyl)-4-methyl-6-(1,3,5-trimethyl-1H-pyrazol-4-yl)-3,4-dihydropyrazino[1,2-a]indol-1(2H)-one] | 28 nM | 4800 nM |
| COc1ccc(N2C[C@@H](C)n3c(c(CCCOc4cc(C)c(Cl)c(C)c4)c4ccc(Cl)c(-c5c(C)ncnc5C)c43)C2=O)c2c1cc(C(=O)O)n2Cc1cccc(C)n1 [Example 477, (R)-7-(7-Chloro-10-(3-(4-chloro-3,5-dimethylphenoxy)propyl)-6-(4,6-dimethylpyrimidin-5-yl)-4-methyl-1-oxo-3,4-dihydropyrazino[1,2-a]indol-2(1H)-yl)-4-methoxy-1-((6-methylpyridin-2-yl)methyl)-1H-indole-2-carboxylic acid] | < 0.2 nM | < 200 nM |
| COCCn1cc(N2C[C@@H](C)n3c(c(CCCOc4cc(C)c(Cl)c(C)c4)c4ccc(Cl)c(-c5c(C)nn(C)c5C)c43)C2=O)c2cc(-c3ncn(CC4CCOCC4)n3)ccc21 [Example 624, (R)-7-Chloro-10-(3-(4-chloro-3,5-dimethylphenoxy)propyl)-2-(1-(2-methoxyethyl)-5-(1-((tetrahydro-2H-pyran-4-yl)methyl)-1H-1,2,4-triazol-3-yl)-1H-indol-3-yl)-4-methyl-6-(1,3,5-trimethyl-1H-pyrazol-4-yl)-3,4-dihydropyrazino[1,2-a]indol-1(2H)-one] | 9.6 nM | 430 nM |
| Cc1cc(OCCCc2c3n(c4c(-c5c(C)nn(C)c5C)c(Cl)ccc24)[C@H](C)CN(c2cn(Cc4ccccn4)c4ccc(C(=O)O)cc24)C3=O)cc(C)c1Cl [Example 561, (R)-3-(7-chloro-10-(3-(4-chloro-3,5-dimethylphenoxy)propyl)-4-methyl-1-oxo-6-(1,3,5-trimethyl-1H-pyrazol-4-yl)-3,4-dihydropyrazino[1,2-a]indol-2(1H)-yl)-1-(pyridin-2-ylmethyl)-1H-indole-5-carboxylic acid] | < 0.2 nM | 510 nM |
| COCc1nc(-c2ccc3c(c2)c(N2C[C@@H](C)n4c(c(CCCOc5cc(C)c(Cl)c(C)c5)c5ccc(Cl)c(-c6c(C)nn(C)c6C)c54)C2=O)cn3C)nn1C [Example 674, (R)-7-Chloro-10-(3-(4-chloro-3,5-dimethylphenoxy)propyl)-2-(5-(5-(methoxymethyl)-1-methyl-1H-1,2,4-triazol-3-yl)-1-methyl-1H-indol-3-yl)-4-methyl-6-(1,3,5-trimethyl-1H-pyrazol-4-yl)-3,4-dihydropyrazino[1,2-a]indol-1(2H)-one] | 2.1 nM | 210 nM |
| COCCOc1cc(N2C[C@@H](C)n3c(c(CCCOc4cc(C)c(Cl)c(C)c4)c4ccc(Cl)c(-c5c(C)nn(C)c5C)c43)C2=O)c2c(c1)c(C(=O)O)cn2C [Example 654, (R)-7-(7-chloro-10-(3-(4-chloro-3,5-dimethylphenoxy)propyl)-4-methyl-1-oxo-6-(1,3,5-trimethyl-1H-pyrazol-4-yl)-3,4-dihydropyrazino[1,2-a]indol-2(1H)-yl)-5-(2-methoxyethoxy)-1-methyl-1H-indole-3-carboxylic acid] | 0.34 nM | 340 nM |
| Cc1cccc(Cn2cnc(-c3ccc4c(c3)c(N3C[C@@H](C)n5c(c(CCCOc6cc(C)c(Cl)c(C)c6)c6ccc(Cl)c(-c7c(C)nn(C)c7C)c65)C3=O)cn4CC(=O)N(C)C)n2)n1 [Example 639, (R)-2-(3-(7-Chloro-10-(3-(4-chloro-3,5-dimethylphenoxy)propyl)-4-methyl-1-oxo-6-(1,3,5-trimethyl-1H-pyrazol-4-yl)-3,4-dihydropyrazino[1,2-a]indol-2(1H)-yl)-5-(1-((6-methylpyridin-2-yl)methyl)-1H-1,2,4-triazol-3-yl)-1H-indol-1-yl)-N,N-dimethylacetamide] | 4.2 nM | 900 nM |
| Cc1cc(OCCCc2c3n(c4c(-c5c(C)nn(C)c5C)c(Cl)ccc24)[C@H](C)CN(c2cn(C)c4ccc(-n5nccn5)cc24)C3=O)cc(C)c1Cl [Example 662, (R)-7-Chloro-10-(3-(4-chloro-3,5-dimethylphenoxy)propyl)-4-methyl-2-(1-methyl-5-(2H-1,2,3-triazol-2-yl)-1H-indol-3-yl)-6-(1,3,5-trimethyl-1H-pyrazol-4-yl)-3,4-dihydropyrazino[1,2-a]indol-1(2H)-one] | 0.93 nM | 1900 nM |
| Cc1cc(OCCCc2c3n(c4c(-c5c(C)nn(C)c5C)c(Cl)ccc24)[C@H](C)CN(c2cc(CN4CCOCC4)cc4c(C(=O)O)cn(C)c24)C3=O)cc(C)c1Cl [Example 549, (R)-7-(7-chloro-10-(3-(4-chloro-3,5-dimethylphenoxy)propyl)-4-methyl-1-oxo-6-(1,3,5-trimethyl-1H-pyrazol-4-yl)-3,4-dihydropyrazino[1,2-a]indol-2(1H)-yl)-1-methyl-5-(morpholinomethyl)-1H-indole-3-carboxylic acid] | 0.34 nM | 340 nM |
| COCCOc1cc(N2C[C@@H](C)n3c(c(CCCOc4cc(C)c(Cl)c(C)c4)c4ccc(Cl)c(-c5c(C)nn(C)c5C)c43)C2=O)c2c(c1)cc(C(=O)O)n2Cc1ccccn1 [Example 537, (R)-7-(7-Chloro-10-(3-(4-chloro-3,5-dimethylphenoxy)propyl)-4-methyl-1-oxo-6-(1,3,5-trimethyl-1H-pyrazol-4-yl)-3,4-dihydropyrazino[1,2-a]indol-2(1H)-yl)-5-(2-methoxyethoxy)-1-(pyridin-2-ylmethyl)-1H-indole-2-carboxylic acid] | < 0.2 nM | < 200 nM |
| COCCn1c(C(=O)O)cc2c(OC)ccc(N3C[C@@H](C)n4c(c(CCCOc5cc(C)c(Cl)c(C)c5)c5ccc(Cl)c(-c6c(C)nn(C)c6C)c54)C3=O)c21 [Example 587, (R)-7-(7-chloro-10-(3-(4-chloro-3,5-dimethylphenoxy)propyl)-4-methyl-1-oxo-6-(1,3,5-trimethyl-1H-pyrazol-4-yl)-3,4-dihydropyrazino[1,2-a]indol-2(1H)-yl)-4-methoxy-1-(2-methoxyethyl)-1H-indole-2-carboxylic acid] | < 0.2 nM | < 200 nM |
| Cc1cc(OCCCc2c3n(c4c(-c5c(C)nn(C)c5C)c(Cl)ccc24)[C@H](C)CN(c2cn(CCN4CCCC4)c4ccc(-c5ncn(C)n5)cc24)C3=O)cc(C)c1Cl [Example 586, (R)-7-Chloro-10-(3-(4-chloro-3,5-dimethylphenoxy)propyl)-4-methyl-2-(5-(1-methyl-1H-1,2,4-triazol-3-yl)-1-(2-(pyrrolidin-1-yl)ethyl)-1H-indol-3-yl)-6-(1,3,5-trimethyl-1H-pyrazol-4-yl)-3,4-dihydropyrazino[1,2-a]indol-1(2H)-one] | 2.6 nM | 400 nM |
